Data set [1] concerns the target T1, soluble guanylate cyclase (sGC) (Homo sapiens, UniProt Q02108+Q02153).
T1 construct: endogenously expressing soluble guanylate cyclase (sGC); endogenous in cells; host or cells: HEK293
T1 sequence (Q02153 1-619): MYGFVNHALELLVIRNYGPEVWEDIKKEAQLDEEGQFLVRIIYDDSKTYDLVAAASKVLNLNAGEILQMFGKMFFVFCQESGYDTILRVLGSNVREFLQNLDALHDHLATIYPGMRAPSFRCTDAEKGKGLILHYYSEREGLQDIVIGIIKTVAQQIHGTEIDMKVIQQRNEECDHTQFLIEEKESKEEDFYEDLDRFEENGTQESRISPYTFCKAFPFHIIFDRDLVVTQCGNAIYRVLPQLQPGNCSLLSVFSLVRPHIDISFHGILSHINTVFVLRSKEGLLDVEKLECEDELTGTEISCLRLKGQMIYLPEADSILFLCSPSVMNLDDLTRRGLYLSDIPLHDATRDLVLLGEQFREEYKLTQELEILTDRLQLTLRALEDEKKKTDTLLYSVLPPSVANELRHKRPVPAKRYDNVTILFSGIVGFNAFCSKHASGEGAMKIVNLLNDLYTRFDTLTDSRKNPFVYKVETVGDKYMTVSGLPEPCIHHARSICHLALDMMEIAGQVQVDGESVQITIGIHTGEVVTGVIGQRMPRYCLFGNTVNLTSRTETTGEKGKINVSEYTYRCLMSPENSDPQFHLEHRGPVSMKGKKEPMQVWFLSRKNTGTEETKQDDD
T1 sequence (Q02108 1-690): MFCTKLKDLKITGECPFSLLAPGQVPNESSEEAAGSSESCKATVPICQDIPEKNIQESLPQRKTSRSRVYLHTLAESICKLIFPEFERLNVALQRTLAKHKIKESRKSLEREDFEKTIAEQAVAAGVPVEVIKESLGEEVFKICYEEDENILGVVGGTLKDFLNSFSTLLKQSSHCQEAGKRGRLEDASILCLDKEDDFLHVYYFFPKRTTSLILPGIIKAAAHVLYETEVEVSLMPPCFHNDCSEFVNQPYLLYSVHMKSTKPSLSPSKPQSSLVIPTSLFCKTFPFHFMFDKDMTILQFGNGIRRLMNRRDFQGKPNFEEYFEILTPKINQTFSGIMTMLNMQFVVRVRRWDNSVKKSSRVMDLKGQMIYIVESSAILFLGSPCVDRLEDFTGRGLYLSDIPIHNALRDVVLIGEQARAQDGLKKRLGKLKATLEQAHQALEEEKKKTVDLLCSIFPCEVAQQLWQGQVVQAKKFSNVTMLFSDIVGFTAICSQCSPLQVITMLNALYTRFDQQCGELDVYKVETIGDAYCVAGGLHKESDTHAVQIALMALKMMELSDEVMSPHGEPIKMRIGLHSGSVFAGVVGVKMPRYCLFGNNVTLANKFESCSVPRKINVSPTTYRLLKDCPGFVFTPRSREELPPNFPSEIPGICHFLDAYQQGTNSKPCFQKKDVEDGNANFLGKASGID
Put plainly: sGC-HEK-cGMP assay with LC/MS detection. In kind it is cell-based. Particulars: for EC50: HEK293 cells, 10 μM DETA-NONOate, cGMP by LC/MS, read-out: Absolute EC50; for sGC agonism as compared to parent drug: HEK assay with LC/MS detection. As to the method:
Human embryonic kidney cells (HEK293), endogenously expressing soluble guanylate cyclase (sGC), were used to evaluate the activity of test compounds. Compounds stimulating the sGC enzyme should cause an increase in the intracellular concentration of cGMP. HEK 293 cells were seeded in Dulbecco's Modification of Eagle's Medium supplemented with fetal bovine serum (10% final) and penicillin (100 U/mL)/streptomycin (100 μg/mL) in a 50 μL volume at a density of 1.5×10^4 cells/well in a poly-D-lysine coated 384 well flat bottom plate. Cells were incubated overnight at 37° C. in a humidified chamber with 5% CO2. Medium was aspirated and cells were washed with 1×Hank's Buffered Saline Salt Solution (50 μL). Cells were then incubated for 15 minutes at 37° C. with 50 μL of a 0.5 mM 3-isobutyl-1-methylxanthine (IBMX) solution. The test article and Diethylenetriamine NONOate (DETA-NONOate) solutions (x μM concentration for test article solution and 10 μM concentration for DETA-NONOate solution; wherein x is one of the following concentrations)
were then added to the assay mixture and the resulting mixture was incubated at 37° C. for 20 minutes. After the 20 minute incubation, the assay mixture was aspirated and 10% acetic acid containing 150 ng/mL+3-cGMP (internal standard for LCMS) (50 μL) was added to the cells. The plate was incubated at 4° C. for 30 minutes in the acetic acid solution to stop the reaction and lyse the cells. The plates were then centrifuged at 1,000 g for 3 minutes at 4° C. and the supernatant transferred to a clean reaction plate for LCMS analysis.
cGMP concentrations were determined from each sample using the LCMS conditions below (Table 2) and calculated standard curve. The standard curve was prepared in 10% acetic acid with 150 ng/mL+3cGMP (isotopically labelled cGMP with a weight 3 units higher than wild type) with the following final concentrations of cGMP in ng/mL: 1, 5, 10, 50, 100, 250, 500, 1000, 2000.
Data were normalized to a high control using the following equation: 100*(Sample−Low Control)/(High Control−Low Control), where the low control is the average of 16 samples treated with 1% DMSO, and the high control is the average of 16 samples treated with 30 μM of Compound Y depicted below. Data were fit using a 4-parameter fit (log(agonist) vs. response—variable slope) using GraphPad Prism Software v.5. n=2 for all compounds. The Absolute EC50 was interpolated from the curve fit and is defined as the concentration at which a given compound elicits 50% of the high control response. Compounds failing to elicit a minimum response of 50% are reported as >30 μM. For compounds run in duplicate or n higher than 2, the result herein given is the geometric mean of the several results obtained.
sGC enzyme activity values in HEK cells, expressed as Absolute EC50 which is defined as the concentration at which a given compound elicits 50% of the high control response obtained with Compound Y, after normalization.

The nature of data set [2]: Thermodynamic solubility measurements. The data set is classed as physicochemical. Particulars: aqueous buffer, pH 7, aqueous buffer, thermodynamic from solid. The method, then:
Approximately 1 mg of test compound was weighed into 1.5 mL Eppendorf tubes and 1.5 mL of aqueous buffer of a given pH was added. The samples were vortexed and placed on a shaker at 150 RPM for 2-5 days. The samples were harvested and then centrifuged at 12 K RPM for 20 minutes. The supernatant was diluted twice with Acetonitrile (ACN) and analyzed by UPLC. To dilute the samples, 200 uL of supernatant was taken and discarded. Then, 400 uL of supernatant (with 200 uL intervals) was taken and added to 400 uL of acetonitrile (with 200 uL intervals).
UPLC conditions: Mobile Phase A: 0.1% TFA in Water; Mobile Phase B: 0.1% TFA in Acetonitrile; Column: Acquity BEH C18, 1.7 um, 2.1×50 mm; Injection Volume: 2-3 uL; Autosampler Temperature: Ambient; Column Temperature: 25° C.; Run Time: 10 minutes; Flow Rate: 0.45 mlJmin; Collected Wavelengths: 220 nm, 245 nm, 254 nm, 280 nm, PDA Spectrum (190-400 nm); Wavelength Used for Analysis: 254 nm

SMILES strings stand for the structures. ≈ marks a conversion by molar mass, not a printed value. Where two headings read alike, the source gives them in different places.

By EC50 is commonly meant the concentration needed to bring the measured effect to its halfway point. What is called solubility is how much of the substance goes into solution per volume.

For the molecule `O=P(O)(O)OC(CNc1nc(-c2cc(-c3ccon3)n(Cc3ccccc3F)n2)ncc1F)(C(F)(F)F)C(F)(F)F` [Compound I-1], the EC50 in data set [1] (prodrug) worked out at 13 µM. Moreover, the “sGC agonism as compared to parent drug” value in data set [1] was “did not exhibit a high degree of sGC agonism”. For the same molecule, the solubility in data set [2] was 66 to 1000 µg/mL (≈ 107 to 1630 µM).

As for `O=P(O)(O)OCOC(CNc1nc(-c2cc(-c3ccon3)n(Cc3ccccc3F)n2)ncc1F)(C(F)(F)F)C(F)(F)F` [Compound I-4], the EC50 in data set [1] (prodrug) was 25 µM. In data set [1], the “sGC agonism as compared to parent drug” value is “did not exhibit a high degree of sGC agonism”. In data set [2], this molecule displayed a solubility of 71 µg/mL (≈ 110 µM).

For `OC(CNc1nc(-c2cc(-c3ccon3)n(Cc3ccccc3F)n2)ncc1F)(C(F)(F)F)C(F)(F)F` [Intermediate 3], the EC50 in data set [1] (Parent compound column) was determined as 0.22 µM. Further, the solubility in data set [2] was 2 to 3 µg/mL (≈ 3.74 to 5.61 µM).
